Measurements from PMC11730078, “Virtual screening and evaluation of bioactive peptides from Haliotis discus hannai as potential HMGCR inhibitors for hyperlipidemia treatment” (Frontiers in Nutrition, 2024).

Assays:
[1] = test system: HMG-CoA reductase (HMGCR); assay: HMG-CoA reductase inhibitory activity (HMG-CoA Reductase Assay Kit, Abcam ab204701); assay type: biochemical; details: 1 mM peptide, 0.5 mM Atorvastatin as positive control, OD340, 37°C, mean ± SD, three biological replicates, Figure 3B
Procedure: The HMG-CoA reductase inhibitory activities were determined using the HMG-CoA Reductase Assay Kit (Abcam, ab204701) as previously described ([19]). Enzyme activity was measured by monitoring the decrease in absorbance at 340 nm and 37°C, following the manufacturer’s instructions. The reaction mix consisted of a mixture of HMG-CoA:NADPH:HMG-CoA reductase buffer assay (12:4:174; 190 μL). In a 96-well flat-bottomed microtiter plate, 5 μL of HMG-CoA reductase, 2 μL of inhibitor, and 3 μL of buffer were mixed. The addition of 190 μL of reaction mix marked the initiation of the enzyme reaction. OD340 was measured for 10 min at 2-min intervals at 37°C.
HMGCR inhibition rate (%)=−ΔA340nm/ΔTEnzyme−−ΔA340nm/ΔTEnzyme+Inhubitor/−ΔA340nm/ΔTEnzyme×100.

high-fat Hep-G2 cells [2] = assay: TC content in FFAs-induced high-fat Hep-G2 cells; assay type: cell-based; details: 24 h; for TC level in high-fat Hep-G2 cells, dose effect: peptide 50, 100, 200, 400 μM with FFAs
Procedure: Cells grown to the log phase were digested, gently mixed using a pipette, and collected via centrifugation. The cells were then resuspended in a culture medium and homogenized using a pipette. A hemocytometer was used to count the cells diluted to 2 × 10^5/mL using a complete medium. Then, 250 μL of the cell suspension was pipetted into a 48-well cell culture plate for incubation in a CO2 incubator at 37°C for 14–16 h. […] Control groups were performed without peptides or FFAs. The model groups were treated with FFAs only, without peptides. Next, the cells were washed with DPBS and lysed for 45 min on ice using 1.5% Triton-X100. TC, TG, HDL-C, and LDL-C levels were determined using Nanjing Jiancheng assay kits.

[3] = Inhibition of cholesterol micelle solubility in vitro; details: for Cholesterol micelle solubility inhibition rate: 1 mM peptide, micelles of 10 mM sodium taurocholate, 0.4 mM cholesterol, 1 mM oleic acid, pH 7.4, 37°C, 24 h, mean ± SD, three biological replicates, Figure 3C, SD; for Inhibition of cholesterol micellar solubility, comparison and dose trend: peptide 50, 100, 200, 400 μM, Figure 4D
Procedure: After sequence identification, the peptide sequences were obtained through solid-phase synthesis by GenScript (Nanjing, China). The inhibitory effect of the peptide on cholesterol micelle solubility was measured as previously described with some modifications ([18]). Micellar solutions (1 mL) contained 10 mM sodium taurocholate, 0.4 mM cholesterol, 1 mM oleic acid, 132 mM NaCl, and 15 mM sodium phosphate (pH 7.4). […] After mixing, the samples were ultrasonically emulsified at 37°C for 30 min and incubated on a shaker at 37°C for 24 h. The samples were centrifuged at 8,000 × g for 20 min, and a total cholesterol (T-CHO) assay kit (Jiancheng Bioengineering Institute, Nanjing, China) was used for measurement. The inhibitory effect of the peptide solution on cholesterol micelle solubility was calculated as follows: (1) Cholesterol micelle solubility inhibition rate() =C0−C1/C0×100 where C0 is the initial cholesterol concentration in the micelles, and C1 is the cholesterol concentration in the micelles after sample addition.

high-fat Hep-G2 cells [4] = assay: TG content in FFAs-induced high-fat Hep-G2 cells; assay type: cell-based; details: 400 μM peptide with FFAs, 24 h; for TG content in high-fat Hep-G2 cells: mean ± SD, three biological replicates, Figure 4C, SD
Procedure: Cells grown to the log phase were digested, gently mixed using a pipette, and collected via centrifugation. The cells were then resuspended in a culture medium and homogenized using a pipette. A hemocytometer was used to count the cells diluted to 2 × 10^5/mL using a complete medium. Then, 250 μL of the cell suspension was pipetted into a 48-well cell culture plate for incubation in a CO2 incubator at 37°C for 14–16 h. After reaching 80–90% confluency, cells were incubated with peptides (50, 100, 200, or 400 μM) and FFAs (10% oleic acid and palmitic acid) for 24 h. Control groups were performed without peptides or FFAs. The model groups were treated with FFAs only, without peptides. Next, the cells were washed with DPBS and lysed for 45 min on ice using 1.5% Triton-X100. TC, TG, HDL-C, and LDL-C levels were determined using Nanjing Jiancheng assay kits.

Row | Substance | HMGCR inhibition rate [1] | TC level in high-fat Hep-G2 cells, dose effect (high-fat Hep-G2 cells [2]; Figure 4B) | Cholesterol micelle solubility inhibition rate [3] | Inhibition of cholesterol micellar solubility, comparison and dose trend [3] | Decrease of TG content compared with model group (high-fat Hep-G2 cells [4]) | TG content in high-fat Hep-G2 cells (high-fat Hep-G2 cells [4]) [mmol/gprot] | TC level in high-fat Hep-G2 cells compared with model group (high-fat Hep-G2 cells [2]; 400 μM peptide with FFAs, Figure 4B) | TC accumulation in high-fat Hep-G2 cells compared with model group (high-fat Hep-G2 cells [2]; peptide 1 mM with FFAs, Figure 3A)
1 | APDMAFPR | 59.55% ± 0.46 | not significant | 35.87% ± 2.56 | weakest inhibitory effect | 34.86% ± 0.08 | 0.31 ± 0.04 | – | –
2 | DYPRPW | 51.81% ± 0.70 | the higher the concentration, the lower the TC level | 37.29% ± 1.45 | superior inhibition rate | – | – | significantly lower than that in the model group | –
3 | LPAYPMP | 54.65% ± 0.36 | not significant | 41.55% ± 5.48 | showed inhibition of cholesterol micellar solubility | – | – | – | –
4 | QDAVMPNPF | – | not significant | 47.94% ± 0.58 | showed inhibition of cholesterol micellar solubility | 31.31% ± 0.10 | 0.33 ± 0.05 | – | –
5 | SPADIGFH [abalone viscera peptide, top 20 after virtual screening, synthesized by GenScript] | 53.89% ± 3.89 | – | 45.23% ± 3.68 | – | – | – | – | –
6 | WFKTM [abalone viscera peptide, top 20 after virtual screening, synthesized by GenScript] | – | – | – | – | – | – | – | all peptides, except for WFKTM, alleviated TC accumulation
